Measurements: the RepoRT retention time repository (doi:10.1007/s00216-021-03828-0)

Columns and labels:
Details in all cases: stereoisomer not certain
[1] = RP, Merck Supelco Ascentis Express C18, 100 × 2.1 mm, 2 µm, 40 °C, 0.2 mL/min, estimated dead time 1.1 min; A: water + 0.1% formic acid, pH 3; B: acetonitrile + 0.1% formic acid, pH 3; gradient (min/%B) 0/5 2/5 17/99.9 20/99.9
[2] = as above; remark: listed apart in the source
[3] = RP, Merck Supelco Ascentis Express C18, 100 × 2.1 mm, 2 µm, 40 °C, 0.4 mL/min, estimated dead time 0.55 min; A: water + 0.1% formic acid, pH 3; B: acetonitrile + 0.1% formic acid, pH 3; gradient (min/%B) 0/5 2/5 17/99.9 20/99.9
[4] = as above; remark: listed apart in the source
[5] = RP, Merck Supelco Ascentis Express C18, 100 × 2.1 mm, 2 µm, 39 °C, 0.3 mL/min, estimated dead time 0.73 min; A: water + 0.1% formic acid, pH 3; B: acetonitrile + 0.1% formic acid, pH 3; gradient (min/%B) 0/5 2/5 17/99.9 20/99.9
[6] = RP, Merck Supelco Ascentis Express C18, 100 × 2.1 mm, 2 µm, 40 °C, 0.25 mL/min, estimated dead time 0.88 min; A: water + 0.1% formic acid, pH 3; B: acetonitrile + 0.1% formic acid, pH 3; gradient (min/%B) 0/5 2/5 17/99.9 20/99.9
[7] = RP, Merck Supelco Ascentis Express C18, 100 × 2.1 mm, 2 µm, 40 °C, 0.35 mL/min, estimated dead time 0.63 min; A: water + 0.1% formic acid, pH 3; B: acetonitrile + 0.1% formic acid, pH 3; gradient (min/%B) 0/5 2/5 17/99.9 20/99.9

LC retention time [1] [min] | LC retention time [2] [min] | LC retention time [3] [min] | LC retention time [4] [min] | LC retention time [5] [min] | LC retention time [6] [min] | LC retention time [7] [min] | SMILES
10.4 | 10.4 | 8.61 | 8.56 | 9.28 | 9.77 | 8.9 | O=C(O)c1ccc2ccccc2c1O [1-HYDROXY-2-NAPHTHOATE]
2.01 | 2.01 | 1.01 | 0.993 | 1.31 | 1.58 | 1.16 | Cn1cnc2c(ncn2C2OC(CO)C(O)C2O)c1=N (centres undefined) [1-METHYLADENOSINE]
7.01 | 7 | 5.17 | 5.14 | 5.94 | 6.34 | 5.5 | CC(=O)c1ccc(O)cc1O [2',4'-DIHYDROXYACETOPHENONE]
5.33 | 5.32 | 1.53 | 1.52 | 2.06 | 2.44 | 3.88 | O=C(O)c1cccc(O)c1O [2,3-DIHYDROXYBENZOATE]
1.41 | 1.41 | 0.7 | 0.687 | 0.967 | 1.13 | 0.783 | O=c1[nH]c(=O)c2nccnc2[nH]1 [2,4-DIHYDROXYPTERIDINE]
4.65 | 4.65 | 2.66 | 2.63 | 3.5 | 4.02 | 3.04 | O=C(O)c1cc(O)ccc1O [2,5-DIHYDROXYBENZOATE]
3.75 | 3.75 | 1.9 | 1.86 | 2.49 | 3 | 2.15 | CSCCC(O)C(=O)O (centres undefined) [2-HYDROXY-4-(METHYLTHIO)BUTANOATE]
4.85 | 4.83 | 2.95 | 2.88 | 3.67 | 4.19 | 3.28 | O=C(O)Cc1ccccc1O [2-HYDROXYPHENYLACETATE]
3.05 | 3.06 | 1.53 | 1.52 | 2.06 | 2.44 | 1.76 | O=C(O)c1ccc(O)c(O)c1 [3,4-DIHYDROXYBENZOATE]
3.97 | 3.92 | 1.95 | 2.02 | 2.67 | 3.22 | 2.32 | O=C(O)Cc1ccc(O)c(O)c1 [3,4-DIHYDROXYPHENYLACETATE]
18.2 | 18.1 | 16.1 | 16 | 16.8 |  | 16.4 | CCCCCCCCC=CCCCCCCCC(=O)O [ELAIDATE]
10.2 |  | 7.46 | 8.4 | 8.12 | 8.62 | 8.75 | COC(=O)Cc1c[nH]c2ccccc12 [INDOLE-3-METHYL ACETATE]
1.37 | 1.37 |  | 0.683 | 0.887 | 1.07 | 0.763 | C[Se]CCC(N)C(=O)O (centres undefined) [SELENOMETHIONINE]

SMILES | LC retention time [1] [min] | LC retention time [2] [min] | LC retention time [3] [min] | LC retention time [4] [min] | LC retention time [5] [min] | LC retention time [6] [min] | LC retention time [7] [min]
O=C([O-])Cc1ccccc1 [PHENYLACETATE] | 4.08 |  | 3.95 | 3.93 | 4.5 | 3.45 | 4.56
